Reference: patent US10597370B2, “2-(benzothiazol-2-yl)-2-cyano-acetamide derivatives and their use as endothelial lipase inhibitors” (BRISTOL-MYERS SQUIBB COMPANY, priority 2016, dated 2020)

Target: T1, Endothelial lipase (EL) (Homo sapiens, UniProt Q9Y5X9)
T1 construct: transformed by RAGE technology (Athersys) to overexpress endogenous EL; endogenous in cells; the conditioned medium served as the enzyme source
T1 sequence (Q9Y5X9 21-500): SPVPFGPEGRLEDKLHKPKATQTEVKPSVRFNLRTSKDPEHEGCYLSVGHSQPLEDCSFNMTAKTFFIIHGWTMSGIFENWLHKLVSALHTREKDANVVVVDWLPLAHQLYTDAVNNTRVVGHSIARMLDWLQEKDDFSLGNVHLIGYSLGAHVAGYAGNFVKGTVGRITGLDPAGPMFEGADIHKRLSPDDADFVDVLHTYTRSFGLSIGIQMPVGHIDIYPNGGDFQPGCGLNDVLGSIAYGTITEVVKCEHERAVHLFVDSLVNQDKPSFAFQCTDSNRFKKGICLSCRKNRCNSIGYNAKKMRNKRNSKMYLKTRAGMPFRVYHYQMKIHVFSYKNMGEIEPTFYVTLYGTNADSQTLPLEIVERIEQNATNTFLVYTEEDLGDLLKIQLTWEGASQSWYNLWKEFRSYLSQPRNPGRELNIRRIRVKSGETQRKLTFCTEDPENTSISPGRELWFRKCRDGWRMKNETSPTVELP
Assay: Endothelial lipase (EL) enzymatic assay with fluorescent substrate A10070 in DMPG vesicles
Format: biochemical
Details: conditioned media from HT-1080 cells overexpressing endogenous EL; 20 min preincubation at 37° C.
Description: Endothelial lipase activity was measured using a fluorescent substrate, A10070, (Invitrogen, CA) doped into an artificial vesicle containing DMPG (Avanti Polar Lipids) as the excipient. Vesicles were prepared by combining 285 μL of 1 mM DMPG in a 1:1 mixture of MeOH and CHCl3 with 15 μL of 1 mM A10070 in a 1:1 mixture of MeOH and CHCl3. The mixture was dried under nitrogen and resuspended in 150 μL of 50 mM HEPES pH 8.0 buffer containing 100 mM NaCl and 0.2 mM EDTA. The sample was allowed to sit at rt for 15 min and then was sonicated 3×4 mins on ice with a Branson Sonicator using duty cycle 1. This preparation provides vesicles with a mole fraction of 0.05 for the FRET substrate.
The enzymatic assay was measured using white, opaque 96-well half area plates. Each well contained 60 μL of assay buffer (50 mM HEPES pH 8.0, 50 mM NaCl and 1 mM CaCl2) and 2 ul of a DMSO solution containing compound of interest. Conditioned media obtained from HT-1080 cells, which were transformed by RAGE technology (Athersys) to overexpress endogenous EL, was added and the reaction was allowed to incubate for 20 min at 37° C. with gentle agitation. The reaction was started by the addition of 20 μL of a 1:4 dilution of vesicles. The final total reaction volume was 100 μL. The reaction rates were measured on a Gemini plate reader with an excitation wavelength of 488 nm and an emission of 530 nm. Readings were taken every 20 seconds for 10 min with agitation between each reading. The slope of the linear portion of the readout was used to calculate the rate of the reaction.

Work on `N#CC(C(=O)NCC(=O)NC1CC1)c1nc2ccc(-c3ccc(C(=O)N4CCCCC4)cc3)cc2s1` (centres unmarked) [Example 13, 2-cyano-N-[(cyclopropyl-carbamoyl)methyl]-2-{6-[4-(piperidine-1-carbonyl)phenyl]-1,3-benzothiazol-2-yl} acetamide] yielded an IC50 of 11 nM.
With `N#CC(C(=O)NCC(=O)NC1CC1)c1nc2ccc(-c3ccc4c(c3)CNC4=O)cc2s1` (centres unmarked) [Example 8, 2-cyano-N-[(cyclopropyl-carbamoyl)methyl]-2-[6-(1-oxo-2,3-dihydro-1H-isoindol-5-yl)-1,3-benzothiazol-2-yl]acetamide] the IC50 was 5 nM.
For `N#CC(C(=O)NCC(=O)NC1CC1)c1nc2ccc(-c3cccc(C(N)=O)c3)cc2s1` (centres unmarked) [Example 9, 3-{2-[cyano ({[(cyclopropyl-carbamoyl)methyl]carbamoyl})methyl]-1,3-benzothiazol-6-yl} benzamide], the IC50 was 399 nM.
`N#CC(C(=O)NCC(=O)NC1CC1)c1nc2cc(-c3ccc(C(N)=O)cc3)c(F)cc2s1` (centres unmarked) [Example 28, 4-{2-[cyano ({[(cyclopropyl-carbamoyl)methyl]carbamoyl})methyl]-6-fluoro-1,3-benzothiazol-5-yl}benzamide] was tested, and the IC50 was less than 1 nM.
`N#CC(C(=O)NCC(=O)NC1CC1)c1nc2cc(-c3cccc(C(N)=O)c3)c(F)cc2s1` (centres unmarked) [Example 26, 3-{2-[cyano({[(cyclopropylcarbamoyl)methyl]carbamoyl})methyl]-6-fluoro-1,3-benzothiazol-5-yl}benzamide] gave an IC50 of 21 nM.
